Drawing on patent publication US8088806B2 (Achillion Pharmaceuticals, Inc., priority 2005, dated 2012), this text covers EC50 for 4 molecules.

This experiment deals with HCV replicon. The experiment in a line: Replicon based assay of HCV replication inhibition (NPT ELISA). The format is cell-based, Hepatitis C virus. The conditions noted are these: Hepatitis C virus, read-out: Activity. In a few lines: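 Huh-7 cells carrying a bicistronic HCV replicon (neo, EMCV-IRES-driven NS3–NS5B) treated overnight after seeding with usually 6 concentrations, 10 to 0.03 micromolar, for three days at 37° C without G418. Replication read as NPT level by captured ELISA; matched-DMSO wells and interferon alpha as controls.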

Setting [1] is: replicon based assay of HCV replication inhibition, Table IV.

Like-named read-outs stand apart in the source and are kept apart here. Where only a bound is given, the exact number is not on record here.

As for `FC(F)(F)c1cc(Nc2nc(-c3cccnc3)cs2)ccc1OCCCOc1ccccc1` [compound 924, N-(4-(3-phenoxypropoxy)-3-(trifluoromethyl)phenyl)-4-(pyridin-3-yl)thiazol-2-amine], under setting [1], the EC50 was < 1000 nM.

Turning to `CCCCCOc1ccc(Nc2nc(/C=C/c3ccc(Cl)cc3)cs2)cc1C(F)(F)F` [compound 601, 4-(4-chlorostyryl)-N-(3-(trifluoromethyl)-4-(pentyloxy)phenyl)thiazol-2-amine], for the setting “Huh-7, 72 h, Table III, Huh-7 HCV replicon-containing cells, three days”, the EC50 is < 1000 nM. As to `CCCCCCCCOc1ccc(Nc2nc(C(=O)CNc3nccs3)cs2)cc1C(F)(F)F` [compound 784, 1-(2-(3-(trifluoromethyl)-4-(octyloxy)phenylamino)thiazol-4-yl)-2-(thiazol-2-ylamino)ethanone], the EC50 under setting [1] was < 1000 nM.

As for `CCCCCCCCOC(=O)c1ccc(Nc2nc(-c3cnc(OC)nc3)cs2)cc1C(F)(F)F` [compound 779, octyl 4-(4-(2-methoxypyrimidin-5-yl)thiazol-2-ylamino)-2-(trifluoromethyl)benzoate], the EC50 under setting [1] was < 1000 nM.
